Tests used:
AfGna1 [1] = biological target: T1, AfGna1 (Aspergillus fumigatus, UniProt Q4WCU5); test: bio-layer interferometry, biotinylated protein on SSA biosensors; type: binding
T1 construct: gene AFUA_6G02460; GST fusion (pGEX6P-1) from E. coli BL21(DE3) pLysS, GST tag cleaved with PreScission; obligate homodimer; 164-165 residues modelled; biotinylated for BLI
T1 sequence (Q4WCU5 1-190): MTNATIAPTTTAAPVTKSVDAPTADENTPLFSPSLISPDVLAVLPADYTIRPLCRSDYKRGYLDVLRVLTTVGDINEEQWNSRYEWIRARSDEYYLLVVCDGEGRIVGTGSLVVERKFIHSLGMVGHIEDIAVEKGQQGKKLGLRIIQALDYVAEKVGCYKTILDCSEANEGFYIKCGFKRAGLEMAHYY

AfGna1 [2] = biological target: T1, AfGna1; test: bio-layer interferometry, confirmed by isothermal titration calorimetry; type: binding; conditions: read-out: equilibrium dissociation constant

Row | Compound | Kd (AfGna1 [1]) [µM] | Kd (AfGna1 [2]) [µM]
1 | Nc1cccc(-c2nc[nH]n2)c1Cl [compound 2, 2-chloro-3-(1,2,4-triazol-3-yl)aniline] | 0.8 | –
2 | Clc1ccccc1-c1nnc[nH]1 [compound 1, fragment hit 1] | – | 6
3 | OCCN(CCO)c1cc(Cl)c(-c2nc[nH]n2)c(Cl)c1 [compound 3, 2,2′-((3,5-dichloro-4-(1,2,4-triazol-3-yl)phenyl)azanediyl)bis(ethan-1-ol)] | 5 | –

Reference: PMC7324522, “Targeting a critical step in fungal hexosamine biosynthesis” (The Journal of Biological Chemistry, 2020)
